# From patent publication US11278555B2, “Combinational therapies for treatment of cancer comprising a bacteriochlorophyll derivative” (Yeda Research and Development Co. Ltd., priority 2016, dated 2022)
# Key:
# MB49 (bladder) tumors [1] = assay: WST11 VTP and Gemzar in mice grafted with MB49 tumors (Scheme 2); assay type: in vivo; details: for animals cured (fraction): WST11 9 mg/kg VTP day 15 post grafting, Gemzar 50 mg/kg, 12 treatments/90 days; for cure / tumor progression: single treatment modalities
# Experimental: • (i) Bacteriochlorophyll Derivatives—The Bchl derivatives and RGD-conjugates thereof were provided by Steba Biotech (Rehovot, Israel). […] Concentration was verified by spectrophotometric measurement. STL-7012 was provided as dipotassium salt. Working solution was prepared by dissolving STL-7012 K^+ salt in 5% mannitol solution (1 mg/ml). […] WST11 was supplied as a powder and kept in the dark at −20° C. Stock was prepared by dissolving WST11 in DDW containing 5% glucose and 0.67% mannitol, aliquoted and lyophilized. Working solution was reconstituted with DDW and the concentration of solution was confirmed spectrophotometrically. Alternatively, Clinical WST11 (batch: P00611, and 10-130611) was supplied as lyophilized formulation. Material was dissolved in 5% dextrose, aliquoted and stored at −20° C. At the day of treatment the aliquot was thawed, filtered and the concentration of solution was confirmed spectrophotometrically. • (ii) Chemotherapeutic drugs preparation and storage—Gemcitabine (GEM, Gemzar®, Lilly) was purchased from a local pharmacy as a powder, dissolved in saline to a concentration of 38 mg/ml, aliquoted and stored at −20° C. […] Cyclophosphamide (CTX, Endoxan®, Baxter Oncology Gmbh, Germany) was purchased from a local pharmacy. A stock solution of 20 mg/ml was prepared by dissolving in 0.9% NaCl, aliquoted and stored at −20° C. Aliquots were thawed, diluted with saline if needed to a desired concentration and used on the same day prepared at indicated doses. • (iii) Murine cell lines—Mammary luciferase (luc)-labeled 4T1 cell line (4T1-Luc) was a kind gift from Dr. Zvi Granot (Faculty of Medicine, The Hebrew University of Jerusalem, Israel); melanoma B16-F10 cell line was obtained from the American Type Culture Collection (ATCC, Manassas, Va.); bladder MB49 cell line was a kind gift from James Allison (MSKCC, New York, USA), and luc-labeled MB49-cell line was established using the murine stem cell virus (MSCV)-puromycin-luc-GFP construct (kindly provided by Dr. Emily Cheng, Human Oncology and Pathogenesis Program, MSKCC). 4T1 and MB49 cells were maintained in DMEM medium and B16-F10 cells in RPMI medium supplemented with 1 mmol/L sodium pyruvate, 10% fetal calf serum (FCS), 250 μg/ml hygromycin, 0.06 mg/ml penicillin and 0.1 mg/ml streptomycin. The cells were grown as monolayer at 37° C. in a humidified atmosphere (5% CO2, 95% air). • (iv) Murine tumor models—Female, Balb/c mice (6-8 week old) were grafted either subcutaneously (s.c.) into the right hind leg or orthotopically with 1×10^6 4T1 cells suspended in 50 or 1000 PBS. For the rechallenge study, 2×10^5 4T1 cells were orthotopically grafted. For bladder cancer model, 5×10^4 of MB49 or MB49-luciferase cell line were s.c. injected into the right flank of C57B/6 male mice (7-8 weeks old, Taconic, Hudson, N.Y.) 15 days prior to VTP treatment. For the efficacy study of VTP in immune compromised mice, the same number of MB49 cells was injected in the flank of Rag^−/− on C57B/6 background or C57B/6 male mice (7-8 week old, Jackson Laboratory, Bar Harbor, Me.). For bilateral model of MB49 cells, animals received 5×10^4 MB49 cells in the right flank and 5×10^4 cells in the left flank on days −15 and +1, respectively. All experimental procedures were approved by the Institutional Animal Care and Use Committee at the Weizmann Institute of Science (Rehovot, Israel) and The Memorial Sloan Kettering Cancer Center (MSKCC, New York, USA). […] Whole body imaging of luciferase-transfected tumors and metastases were recorded five minutes following 75 mg Kg^−1 intraperitoneal (i.p.) injection of D-luciferin with respective filter sets. • (vi) PDT treatment protocol: 4T1-Luc cells were grafted in the mammary pad of Balb/c mice. […] During the first two post-treatment days, the mice received analgesia (2.5 mg/kg Flunexin, once daily). Ablation of primary tumors was assessed every 7 days by imaging the tumor's luciferase-mediated bioluminescence signal, using IVIS. […]
# MB49 (bladder) tumors [2] = assay: Systemic anti-tumor response in MB49 mice: second tumor (bilateral model) and tail vein re-challenge (Scheme 3); assay type: in vivo; details: for animals with growth of second tumor grafted at left hind leg 1 day post VTP (fraction): bilateral model, Gemzar 50 mg/kg
# Experimental: • (i) Bacteriochlorophyll Derivatives—The Bchl derivatives and RGD-conjugates thereof were provided by Steba Biotech (Rehovot, Israel). […] Concentration was verified by spectrophotometric measurement. STL-7012 was provided as dipotassium salt. Working solution was prepared by dissolving STL-7012 K^+ salt in 5% mannitol solution (1 mg/ml). […] WST11 was supplied as a powder and kept in the dark at −20° C. Stock was prepared by dissolving WST11 in DDW containing 5% glucose and 0.67% mannitol, aliquoted and lyophilized. Working solution was reconstituted with DDW and the concentration of solution was confirmed spectrophotometrically. Alternatively, Clinical WST11 (batch: P00611, and 10-130611) was supplied as lyophilized formulation. Material was dissolved in 5% dextrose, aliquoted and stored at −20° C. At the day of treatment the aliquot was thawed, filtered and the concentration of solution was confirmed spectrophotometrically. • (ii) Chemotherapeutic drugs preparation and storage—Gemcitabine (GEM, Gemzar®, Lilly) was purchased from a local pharmacy as a powder, dissolved in saline to a concentration of 38 mg/ml, aliquoted and stored at −20° C. […] Cyclophosphamide (CTX, Endoxan®, Baxter Oncology Gmbh, Germany) was purchased from a local pharmacy. A stock solution of 20 mg/ml was prepared by dissolving in 0.9% NaCl, aliquoted and stored at −20° C. […] Whole body imaging of luciferase-transfected tumors and metastases were recorded five minutes following 75 mg Kg^−1 intraperitoneal (i.p.) injection of D-luciferin with respective filter sets. • (vi) PDT treatment protocol: 4T1-Luc cells were grafted in the mammary pad of Balb/c mice. […] Ablation of primary tumors was assessed every 7 days by imaging the tumor's luciferase-mediated bioluminescence signal, using IVIS. […]
# [3] = Spleen weight of animals orthotopically grafted with 4T1 cancer cells; assay type: in vivo, mice; details: 1 and 3 weeks
# From the text: FIG. 13 compares changes in the spleen weight of animals orthotopically grafted with 4T1 cancer cells and not treated (control) with tumor bearing animals that underwent Gemzar treatment, WST11 VTP treatment or their combination.
# [4] = system: CD11b+ cells, neutrophils/G-MDSC and monocytes/M-MDSC; assay: Innate immune response (spleen CD11b+ IHC, FACS of MDSC) of mice bearing MB49 tumors; assay type: in vivo; details: for CD11b+ cells in the spleen (IHC): day 6 post VTP; for neutrophils/G-MDSC and monocytes/M-MDSC in splenocytic cells (FACS): day 9 post treatment, Gemzar 60 or 120 mg/kg
# Experimental: • (i) Bacteriochlorophyll Derivatives—The Bchl derivatives and RGD-conjugates thereof were provided by Steba Biotech (Rehovot, Israel). […] Concentration was verified by spectrophotometric measurement. STL-7012 was provided as dipotassium salt. Working solution was prepared by dissolving STL-7012 K^+ salt in 5% mannitol solution (1 mg/ml). […] WST11 was supplied as a powder and kept in the dark at −20° C. Stock was prepared by dissolving WST11 in DDW containing 5% glucose and 0.67% mannitol, aliquoted and lyophilized. Working solution was reconstituted with DDW and the concentration of solution was confirmed spectrophotometrically. Alternatively, Clinical WST11 (batch: P00611, and 10-130611) was supplied as lyophilized formulation. Material was dissolved in 5% dextrose, aliquoted and stored at −20° C. At the day of treatment the aliquot was thawed, filtered and the concentration of solution was confirmed spectrophotometrically. • (ii) Chemotherapeutic drugs preparation and storage—Gemcitabine (GEM, Gemzar®, Lilly) was purchased from a local pharmacy as a powder, dissolved in saline to a concentration of 38 mg/ml, aliquoted and stored at −20° C. […] Cyclophosphamide (CTX, Endoxan®, Baxter Oncology Gmbh, Germany) was purchased from a local pharmacy. A stock solution of 20 mg/ml was prepared by dissolving in 0.9% NaCl, aliquoted and stored at −20° C. Aliquots were thawed, diluted with saline if needed to a desired concentration and used on the same day prepared at indicated doses. • (iii) Murine cell lines—Mammary luciferase (luc)-labeled 4T1 cell line (4T1-Luc) was a kind gift from Dr. Zvi Granot (Faculty of Medicine, The Hebrew University of Jerusalem, Israel); melanoma B16-F10 cell line was obtained from the American Type Culture Collection (ATCC, Manassas, Va.); bladder MB49 cell line was a kind gift from James Allison (MSKCC, New York, USA), and luc-labeled MB49-cell line was established using the murine stem cell virus (MSCV)-puromycin-luc-GFP construct (kindly provided by Dr. Emily Cheng, Human Oncology and Pathogenesis Program, MSKCC). 4T1 and MB49 cells were maintained in DMEM medium and B16-F10 cells in RPMI medium supplemented with 1 mmol/L sodium pyruvate, 10% fetal calf serum (FCS), 250 μg/ml hygromycin, 0.06 mg/ml penicillin and 0.1 mg/ml streptomycin. […] Whole body imaging of luciferase-transfected tumors and metastases were recorded five minutes following 75 mg Kg^−1 intraperitoneal (i.p.) injection of D-luciferin with respective filter sets. • (vi) PDT treatment protocol: 4T1-Luc cells were grafted in the mammary pad of Balb/c mice. […] Ablation of primary tumors was assessed every 7 days by imaging the tumor's luciferase-mediated bioluminescence signal, using IVIS. […]
SMILES,animals cured (fraction) (MB49 (bladder) tumors [1]),cure (MB49 (bladder) tumors [1]) [%],tumor progression (MB49 (bladder) tumors [1]),animals with growth of second tumor grafted at left hind leg 1 day post VTP (fraction) (MB49 (bladder) tumors [2]),six fold increase in spleen weight found in non-treated animals [3],CD11b+ cells in the spleen (IHC) [4],neutrophils/G-MDSC and monocytes/M-MDSC in splenocytic cells (FACS) [4],surviving mice that rejected the tumor cells (MB49 (bladder) tumors [2]; re-challenge by tail vein injection of MB49 cells at day 125 post VTP) [%]
"Nc1ccn([C@@H]2O[C@H](CO)[C@@H](O)C2(F)F)c(=O)n1 [Gemzar, Gemcitabine]",0/19,0,slightly delayed tumor progression,15/20,almost completely avoided,depletes CD11b+ cells,depleted systemically,
"CCC1c2cc3[n-]c(c(CC(=O)OC)c4nc(cc5[n-]c(cc(n2)C1C)c(C(C)=O)c5C)C(C)C4CCC(=O)[O-])c(C(=O)NCCS(=O)(=O)[O-])c3C.[K+].[K+].[Pd+2] (stereo not drawn) [WST11, Palladium 3^1-oxo-15-methoxycarbonylmethyl-rhodobacteriochlorin 13^1-(2-sulfoethyl) amide dipotassium salt]",3/19,16,slightly delayed tumor progression,12/19,completely prevented,depletes CD11b+ cells,depleted systemically,70
